The values that follow are results of earlier work, collected in US20210267985A1, “COMPOSITIONS AND METHODS FOR INDUCING ENHANCED BRAIN FUNCTION” (priority 2020, published 2021).

The conditions of the data set: in vivo.

The structures appear in SMILES notation.

As for `Cn1c(=O)c2c(ncn2C)n(C)c1=O` [caffeine], the half-life – broadly, how long it takes for the measured level to halve – was 4 to 6 h.
